Assay [1] concerns A-375. Kind of assay: Antiproliferative activity against human A-375 cells assessed as inhibition of cell growth incubated for 48 hrs by MTT assay. In kind it is functional, cell-based. The conditions noted are these: A-375, 48 h. (In general: Tetrazolium assays rely on reduction of a dye to a coloured formazan, in cell work by metabolically active cells.)
The subject of the next assay is L02. Kind of assay: Antiproliferative activity against human L02 cells assessed as inhibition of cell growth […] incubated for 48 hrs by MTT assay. It is filed as functional, cell-based. The note with it: L02, 48 h.
Assay [2] has as its system HeLa. Kind of assay: Antiproliferative activity against human HeLa cells assessed as inhibition of cell growth incubated for 48 hrs by MTT assay. It is filed as functional, cell-based.
Assay [3] relates to HCT-116. Kind of assay: Inhibition of cell migration in human HCT-116 cells at 25 uM incubated for 48 hrs by wound healing assay (reference value: 42.8 %). It is filed as functional.
Assay [4] has as its system HCT-116. Kind of assay: Inhibition of cell migration in human HCT-116 cells at 25 uM incubated for 24 hrs by wound healing assay (reference value: 32.0 %). It is filed as functional.
The subject of assay [5] is A549. Kind of assay: Antiproliferative activity against human A549 cells assessed as inhibition of cell growth incubated for 48 hrs by MTT assay. The note with it: A549, 48 h. In kind it is functional, cell-based.
Assay [6] concerns MDA-MB-231. Kind of assay: Antiproliferative activity against human MDA-MB-231 cells assessed as inhibition of cell growth incubated for 48 hrs by MTT assay. It is filed as functional, cell-based. The conditions noted are these: MDA-MB-231, 48 h.
Assay [7] deals with HCT-116. Kind of assay: Antiproliferative activity against human HCT-116 cells assessed as inhibition of cell growth incubated for 48 hrs by MTT assay. In kind it is functional, cell-based. The note with it: HCT-116, 48 h.
In assay [8] the test system is HeLa. Kind of assay: Antiproliferative activity against human HeLa cells assessed as inhibition of cell growth at 20 uM incubated for 48 hrs by MTT assay. It is filed as functional.
Assay [9] has as its system A-375. Kind of assay: Antiproliferative activity against human A-375 cells assessed as inhibition of cell growth at 20 uM incubated for 48 hrs by MTT assay. In kind it is functional.
Assay [10] relates to A549. Kind of assay: Antiproliferative activity against human A549 cells assessed as inhibition of cell growth at 20 uM incubated for 48 hrs by MTT assay. In kind it is functional.
The test system of assay [11] is MDA-MB-231. Kind of assay: Antiproliferative activity against human MDA-MB-231 cells assessed as inhibition of cell growth at 20 uM incubated for 48 hrs by MTT assay. In kind it is functional.
Assay [12] has as its system HCT-116. Kind of assay: Antiproliferative activity against human HCT-116 cells assessed as inhibition of cell growth at 20 uM incubated for 48 hrs by MTT assay. It is filed as functional.

SMILES strings stand for the structures.

The IC50 is the concentration that inhibits the measured activity by half. As a reminder, the inhibition is the drop in the measured response relative to a control, in per cent. Consider `O=C(c1cc(Cc2n[nH]c(=O)c3ccccc23)ccc1F)N1CCN(C(=O)C2CC2)CC1` [OLAPARIB], for which the 50% inhibitory concentration (IC50) stood at 12.7 µM in the assay with A-375 [1]; 60.7 µM in the assay on L02; 27.7 µM with HeLa [2]; 31.6 µM in the assay on A549 [5]; 24.8 µM in the assay on MDA-MB-231 [6]; 27.3 µM in the assay on HCT-116 [7]. For the same molecule, the inhibition at 25 µM with HCT-116 [3] was 33.1%; in the assay on HCT-116 [4] it was 25.8%.

As to `NC(=O)c1ccccc1NCc1ccc(NC(=O)Nc2cccc(Br)c2)cc1`, the inhibition at 20 µM is 71.5% with HeLa [8]; 67.2% with A-375 [9]; 82.2% with A549 [10]; 67.2% in the assay with MDA-MB-231 [11]; 72.5% in the assay with HCT-116 [12]. In addition, the IC50 with A-375 [1] turned out to be 19.7 µM; with HeLa [2], 14 µM; in the assay on A549 [5], 11.8 µM; in the assay with MDA-MB-231 [6], 14.4 µM; with HCT-116 [7] it was 10.4 µM.

As for `NC(=O)c1ccccc1OCc1cccc(NC(=O)Nc2cccc(Cl)c2)c1`, the inhibition at 20 µM in the assay on HeLa [8] stood at 77.6%; in the assay with A-375 [9] it was 63.1%; in the assay with A549 [10], 85%; with MDA-MB-231 [11] it was 65.2%; in the assay on HCT-116 [12], 83.3%. For the same molecule, the IC50 with A-375 [1] is 28.5 µM; with HeLa [2], 12.7 µM; in the assay with A549 [5] it was 12.4 µM; with MDA-MB-231 [6], 21.2 µM; with HCT-116 [7] it was 12.3 µM.

As to `NC(=O)c1ccccc1OCc1ccc(NC(=O)Nc2cccc(Cl)c2)cc1`, the inhibition at 20 µM in the assay with HeLa [8] was 66.1%; in the assay on A-375 [9], 54.2%; in the assay on A549 [10], 46.6%; in the assay with MDA-MB-231 [11], 40.1%; in the assay with HCT-116 [12], 74%. Moreover, the IC50 stood at 26.7 µM in the assay with A-375 [1]; 15.2 µM in the assay on HeLa [2]; 25.8 µM in the assay on A549 [5]; 24.9 µM with MDA-MB-231 [6]; 16.1 µM in the assay with HCT-116 [7].

Take `NC(=O)c1ccccc1NCc1cccc(NC(=O)Nc2cccc(Cl)c2)c1`: the inhibition at 20 µM with HeLa [8] is 44.4%; in the assay on A-375 [9], 75.7%; in the assay with A549 [10] it was 85.3%; with MDA-MB-231 [11], 70.9%; in the assay with HCT-116 [12] it was 84%. Further, the IC50 in the assay on A-375 [1] worked out at 25.4 µM; with HeLa [2] it was 34 µM; with A549 [5] it was 15.6 µM; in the assay with MDA-MB-231 [6], 16.1 µM; with HCT-116 [7], 11.3 µM.

The values are drawn from ChEMBL document CHEMBL5352439, “Design, synthesis, biological evaluation and molecular docking study of novel urea-based benzamide derivatives as potent poly(ADP-ribose) polymerase-1 (PARP-1) inhibitors” (Eur J Med Chem, 2022).
